The results in this text go back to PubChem BioAssay (NCI).

Among the test systems are SF-268 CNS; U251 CNS; K-562 leukemia; OVCAR-5 ovarian; UO-31 renal; MOLT-4 leukemia; RPMI-8226 leukemia; OVCAR-4 ovarian; SF-539 CNS; NCI-H460 lung.
What all share (assay): growth of human tumour cells (NCI), 48 h

Structures are written as SMILES.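 Briefly, cells in 96-well plates were exposed to five compound concentrations for 48 h, and endpoints were estimated by linear interpolation. The concentration for 50% growth inhibition is given as GI50. TGI denotes the concentration required for complete inhibition of growth.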

For the molecule `CCC[CH2][Sn]([CH2]CCC)([CH2]CCC)/[C](=C/[Si](C)(C)c1ccccc1)c1ccc2c(c1)OCO2`, the GI50 was 10.7 µM in the assay with SF-268 CNS; 18.8 µM in the assay on U251 CNS; 22.9 µM with K-562 leukemia; 19 µM in the assay on OVCAR-5 ovarian; 18.6 µM in the assay with UO-31 renal; 17.4 µM in the assay on MOLT-4 leukemia. For the same molecule, the GI50 was 20.7 µM in the assay with RPMI-8226 leukemia, 14.9 µM in the assay with OVCAR-4 ovarian, 36 µM in the assay on SF-539 CNS and 21.3 µM in the assay on NCI-H460 lung. In addition, the TGI with SF-268 CNS came out at 98.4 µM; with U251 CNS it was 40 µM; with K-562 leukemia it was 73.9 µM; with OVCAR-5 ovarian it was 44 µM; in the assay with UO-31 renal it was 33.6 µM; in the assay on MOLT-4 leukemia it was 83.3 µM. Besides, the TGI was 77.8 µM in the assay on RPMI-8226 leukemia, 36.6 µM in the assay on OVCAR-4 ovarian, above 100 µM with SF-539 CNS and 52.3 µM in the assay on NCI-H460 lung.
Take `CCc1ccc2oc(=O)ccc2c1`: the TGI in the assay with SF-268 CNS, with U251 CNS, in the assay on K-562 leukemia, in the assay on OVCAR-5 ovarian, with UO-31 renal and in the assay with MOLT-4 leukemia was above 100 µM throughout. The TGI with RPMI-8226 leukemia, in the assay on OVCAR-4 ovarian, in the assay on SF-539 CNS and in the assay with NCI-H460 lung was above 100 µM each time.
In the case of `CC12CCC(=O)C(O1)C1C(=O)c3ccc4c(ccc5ccccc54)c3C(=O)C12` (configuration not stated), the GI50 was 15.3 µM in the assay with SF-268 CNS; 18.8 µM in the assay with U251 CNS; 1.72 µM in the assay with K-562 leukemia; 6.64 µM in the assay with OVCAR-5 ovarian; 6.69 µM in the assay with UO-31 renal; 1.31 µM with MOLT-4 leukemia. For the same molecule, the GI50 was 1.21 µM in the assay on RPMI-8226 leukemia, 1.4 µM in the assay on OVCAR-4 ovarian, 18.8 µM with SF-539 CNS and 4.84 µM in the assay with NCI-H460 lung. Also, the TGI is 36.1 µM in the assay with SF-268 CNS; 35.6 µM in the assay on U251 CNS; 7.3 µM in the assay on K-562 leukemia; 11.4 µM with OVCAR-5 ovarian; 17.5 µM in the assay with MOLT-4 leukemia; above 21.5 µM with RPMI-8226 leukemia. Further, the results for the TGI in the assay with OVCAR-4 ovarian, in the assay on SF-539 CNS and in the assay on NCI-H460 lung were 3.01 µM, 45.3 µM and 11.8 µM, respectively.
In the case of `CCCCC#Cc1c(I)n(C2OC(CO[Si](C)(C)C(C)(C)C)C3OC(C)(C)OC32)c(=O)n(C(=O)c2ccccc2)c1=O` (configuration not stated), the GI50 in the assay on SF-268 CNS was 2.06 µM; in the assay on U251 CNS, 3.25 µM; in the assay on K-562 leukemia it was 15 µM; in the assay with OVCAR-5 ovarian it was 17.1 µM; in the assay on UO-31 renal, 1.97 µM; in the assay on MOLT-4 leukemia, 5.79 µM. For the same molecule, the GI50 was 3.64 µM with RPMI-8226 leukemia, 14 µM in the assay with OVCAR-4 ovarian, 3.54 µM with SF-539 CNS and 10.9 µM in the assay with NCI-H460 lung. Moreover, the TGI is 4.85 µM in the assay with SF-268 CNS; above 100 µM with U251 CNS; 36.2 µM with K-562 leukemia; 31.7 µM in the assay with OVCAR-5 ovarian; 7.51 µM in the assay on UO-31 renal; 23.6 µM in the assay on MOLT-4 leukemia. Moreover, the TGI came out at 17.4 µM in the assay with RPMI-8226 leukemia, 27.2 µM in the assay with OVCAR-4 ovarian, 12.8 µM in the assay on SF-539 CNS and 27.4 µM in the assay with NCI-H460 lung.
Take `CN1CCC(c2c(O)cc(O)c3c(=O)cc(-c4ccccc4Cl)oc23)C(O)C1` (configuration not stated): the TGI is 0.238 µM with SF-268 CNS; above 100 µM in the assay on U251 CNS; above 100 µM with K-562 leukemia; 0.602 µM in the assay with OVCAR-5 ovarian; above 100 µM in the assay with UO-31 renal; 0.198 µM in the assay with MOLT-4 leukemia. Moreover, the TGI with RPMI-8226 leukemia was 0.0285 µM; in the assay with OVCAR-4 ovarian, 0.473 µM; in the assay on SF-539 CNS, above 100 µM; in the assay with NCI-H460 lung it was above 100 µM. The GI50 in the assay on K-562 leukemia is 0.297 µM; in the assay with OVCAR-5 ovarian it was 0.0687 µM; in the assay on SF-539 CNS it was 0.288 µM.
With `CCC(C)(O)c1cn(-c2ccc(Cl)cc2)nn1` (configuration not stated), the TGI in the assay with SF-268 CNS, with U251 CNS, with K-562 leukemia, in the assay with OVCAR-5 ovarian, with UO-31 renal and with MOLT-4 leukemia was above 100 µM in each case. Besides, the TGI in the assay on RPMI-8226 leukemia, in the assay on OVCAR-4 ovarian, in the assay on SF-539 CNS and in the assay on NCI-H460 lung was above 100 µM in each case.
In the case of `C=C(C)[C@@H]1CCc2c(O)c(O)c(=O)cc(C)c2C1`, the TGI was above 100 µM in the assay on SF-268 CNS; above 100 µM with U251 CNS; above 27.6 µM in the assay on K-562 leukemia; above 100 µM in the assay with OVCAR-5 ovarian; above 25.5 µM with UO-31 renal; above 25.2 µM with MOLT-4 leukemia. Further, the TGI with RPMI-8226 leukemia is above 100 µM; with OVCAR-4 ovarian, above 100 µM; in the assay on SF-539 CNS it was 7.4 µM; in the assay with NCI-H460 lung, 3.54 µM.
`Nc1c(C(=O)c2cccc(C(O)CO)c2)cnn1-c1ccc(F)cc1` (configuration not stated): the GI50 in the assay on SF-268 CNS, with U251 CNS, in the assay on K-562 leukemia, in the assay on OVCAR-5 ovarian, in the assay with UO-31 renal and in the assay on MOLT-4 leukemia was above 25 µM in each case. In addition, the GI50 with RPMI-8226 leukemia, in the assay with OVCAR-4 ovarian, in the assay on SF-539 CNS and with NCI-H460 lung was above 25 µM in each case. Also, the TGI in the assay on SF-268 CNS, in the assay on U251 CNS, in the assay with K-562 leukemia, with OVCAR-5 ovarian, in the assay on UO-31 renal and in the assay on MOLT-4 leukemia was above 25 µM in each case. For the same molecule, the TGI in the assay on RPMI-8226 leukemia, with OVCAR-4 ovarian, with SF-539 CNS and in the assay on NCI-H460 lung was above 25 µM each time.
On to `Cc1cc(Cl)cc2c1NC(=O)C2(O)CC(=O)c1ccc(Br)cc1` (configuration not stated), for which the TGI with SF-268 CNS was above 100 µM; with U251 CNS, above 100 µM; in the assay with K-562 leukemia, above 100 µM; in the assay on OVCAR-5 ovarian, above 100 µM; with UO-31 renal it was above 100 µM; in the assay on MOLT-4 leukemia, 46.5 µM. Moreover, the TGI was above 100 µM in the assay with RPMI-8226 leukemia, above 54.6 µM in the assay on OVCAR-4 ovarian, above 100 µM in the assay with SF-539 CNS and above 100 µM in the assay on NCI-H460 lung.
